Experimental data published in PubChem BioAssay (NCI).
Where “and” joins values, the source holds several entries; their conditions need not be identical. Identical values can stand only once.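 Grown in 96-well plates, cells were treated for 48 hours with each compound at five concentrations. Insufficient inhibition: endpoint recorded as highest concentration tested. The concentration for 50% growth inhibition is given as GI50. TGI: total growth inhibition.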

Tests used:
Test in all cases: DTP human tumour cell line panel, 48 h
HOP-18 NSCLC = system: HOP-18 NSCLC
DMS 273 small cell lung = system: DMS 273 small cell lung
M19-MEL melanoma = system: M19-MEL melanoma
MDA-MB-231 breast = system: MDA-MB-231 breast
MCF7 breast = system: MCF7 breast
DU-145 prostate = system: DU-145 prostate
HS 578T breast = system: HS 578T breast
NCI/ADR-RES ovarian = system: NCI/ADR-RES ovarian
BT-549 breast = system: BT-549 breast
SNB-78 CNS = system: SNB-78 CNS

SMILES | TGI (HOP-18 NSCLC) | TGI (DMS 273 small cell lung) | TGI (M19-MEL melanoma) | TGI (MDA-MB-231 breast) | TGI (MCF7 breast) | TGI (DU-145 prostate) | TGI (HS 578T breast) | TGI (NCI/ADR-RES ovarian) | TGI (BT-549 breast) | GI50 (MDA-MB-231 breast) | GI50 (MCF7 breast) | GI50 (DU-145 prostate) | GI50 (HS 578T breast) | GI50 (NCI/ADR-RES ovarian) | GI50 (BT-549 breast) | TGI (SNB-78 CNS)
COc1cccc(C2c3cc4c(cc3OC(O)(CO)C2C(=O)O)OCO4)c1 (stereo not drawn) (tested in a mixture with another compound) | > 100 µM | > 100 µM | > 100 µM |  |  |  |  |  |  |  |  |  |  |  |  | 
Nc1nc2c(c(=O)[nH]1)CN(c1ccc(S(N)(=O)=O)cc1)CN2 |  |  |  | > 100 µM | > 100 µM | > 100 µM | > 100 µM | > 100 µM | > 100 µM |  |  |  |  |  |  | 
CN(CCOc1ccc(C#N)cc1)CCOc1ccc(C#N)cc1 |  |  |  | > 100 µM | > 100 µM | > 100 µM | > 100 µM | > 100 µM | > 100 µM | > 100 µM | > 100 µM | 90 µM | 13.8 µM | 43.8 µM | 20.5 µM | 
CC(=O)n1c2ccccc2c2nc3nc(Oc4ccc(C)cc4)c4ccccc4c3cc21 |  | > 100 µM | > 100 µM |  |  |  |  |  |  |  |  |  |  |  |  | > 100 µM
C[C@@H]1CN(CC(=O)N2CC(C)(C)c3nc(CO)c(Cc4ccc(F)cc4)cc32)[C@@H](CN2CCOC[C@H]2C)CN1 |  |  |  | 21.8 µM | > 100 µM | > 100 µM | > 100 µM | > 100 µM | > 100 µM | 2.02 µM | 37 µM | 82.1 µM | 25 µM | 75.5 µM | 0.162 µM | 
COc1ccc(-c2cn(-c3ccccc3)c(-c3ccccc3)n2)cc1OC |  |  |  | 23.5 µM | 13.1 µM | 7.92 µM | > 100 µM | 30.2 µM | 18.5 µM | 10.8 µM | 2.72 µM | 2.9 µM | 5.68 µM | 4.01 µM | 2.86 µM | 
COc1cc(Nc2nc(N[C@H]3CCCC[C@@H]3N)nc3cc[nH]c(=O)c23)cc(OC)c1 |  |  |  | 9.35 µM | 8.44 µM | 15.3 µM | 15.2 µM | > 100 µM | 5.03 µM | 1.99 µM | 1.37 µM | 0.74 µM | 1.14 µM | 41.4 µM | 1.57 µM | 
O=C1CC[C@@H](S(=O)(=O)c2ccccc2)[C@@H](/C=C/c2ccccc2)O1 | > 100 µM |  | > 100 µM |  |  |  |  |  |  |  |  |  |  |  |  | 
COc1ccc(O)c(C#N)c1C#N |  | > 100 µM | > 100 µM |  |  |  |  |  |  |  |  |  |  |  |  | > 100 µM
CN(C)CCOc1ccc2c(c1)C/C(=C/c1ncc([N+](=O)[O-])n1C)C2=O |  |  |  | 8.42 µM | 7.11 µM | 14 µM | > 49.6 µM | 34.1 µM | 3.74 µM |  |  |  |  |  |  | 
Cn1ccnc1C(=O)/C=C/c1ccc(CC(=O)Nc2ccccc2)cc1 |  |  |  | 9.61 µM | 10.3 µM | 4.03 µM | > 25 µM | > 25 µM | 7.54 µM | 2.37 µM | 1.13 µM | 1.1 µM | 14.2 µM | 7.54 µM | 2.95 µM | 
Cc1cc(C(C#N)c2ccc(Cl)cc2)c(Cl)cc1NC(=O)c1cc(I)cc(I)c1O (stereo not drawn) |  |  |  | 23.9 µM and 37.9 µM | 23.8 µM and 32.4 µM | 28.7 µM and 29.1 µM | 34.4 µM | 28.9 µM and 54.2 µM | 11.8 µM and 23.4 µM | 5.48 µM and 14.2 µM | 6.58 µM and 15.7 µM | 14.5 µM and 15.2 µM | 12 µM | 4.03 µM and 15.7 µM | 4.03 µM and 8.64 µM | 
CCc1cc(O)c(Cl)c(C)c1Cl |  |  |  | 81.1 µM | 61.6 µM | 31.2 µM | 67.7 µM | 50.1 µM | 36 µM |  |  |  |  |  |  | 
CCOC(=O)NN1C(=O)C(=P(c2ccccc2)(c2ccccc2)c2ccccc2)C(C(=O)OCC)=C1C |  | > 100 µM | > 100 µM |  |  |  |  |  |  |  |  |  |  |  |  | > 100 µM
COC(=O)CNC(=O)[C@@H](OC)[C@@H]1Cc2cc3cc(OC4CC(OC5CC(O)C(O)C(C)O5)C(O)C(C)O4)c(C)c(O)c3c(O)c2C(=O)[C@H]1OC1CC(OC2CC(OC3CC(C)(O)C(O)C(C)O3)C(O)C(C)O2)C(O)C(C)O1 (stereo partly drawn) |  |  |  | > 50 µM | > 50 µM | > 50 µM | 2.64 µM | > 50 µM | 1.1 µM | 0.267 µM | 0.0546 µM | 0.208 µM | 0.123 µM | 48.5 µM | 0.114 µM | 
COc1c(N2CCN(CN3C(=O)C(=Nc4ccc(S(=O)(=O)Nc5ncccn5)cc4)c4ccccc43)C(C)C2)c(F)cc2c(=O)c(C(=O)O)cn(C3CC3)c12 (stereo not drawn) |  |  |  | > 50 µM | > 50 µM | 35.2 µM | > 50 µM | > 50 µM | > 50 µM | > 50 µM | 16.5 µM | 11.2 µM | > 50 µM | 23.2 µM | 19.6 µM | 
COc1cc(-c2cn(-c3ccc(Cl)cc3)c(C)c2C(=O)C(F)(F)F)cc(OC)c1OC |  |  |  | > 100 µM | > 100 µM | > 100 µM | > 100 µM | > 100 µM | > 100 µM | > 100 µM | 24.6 µM | > 100 µM | > 100 µM | > 100 µM | 46.8 µM | 
CC(C)CC1=[N+]=C(NC#N)N=C(CCC(=O)Nc2ccccc2[N+](=O)[O-])C1 | > 100 µM |  | > 100 µM |  |  |  |  |  |  |  |  |  |  |  |  | 
COc1cc[nH]c1/C=C1\C(=O)Nc2ccc(F)c(I)c21 |  |  |  | > 25 µM | > 25 µM | > 25 µM | > 25 µM | > 25 µM | > 25 µM | > 25 µM | > 25 µM | > 25 µM | > 25 µM | > 25 µM | > 25 µM | 
CSc1nc2c(nc(N)n2C2OCC(O)C(O)C2O)c(=O)n1C (stereo not drawn) | > 100 µM |  | > 100 µM |  |  |  |  |  |  |  |  |  |  |  |  | > 100 µM
COc1cccc(C(=O)C2C(=O)N(C)CCc3ccccc32)c1OC (stereo not drawn) | > 100 µM | > 100 µM | > 100 µM |  |  |  |  |  |  |  |  |  |  |  |  | 
COc1ccc2c3c(c(=O)n(C)c2c1OC)C=CC(C)(C)O3 |  |  |  | 54 µM | > 100 µM | > 100 µM | 78.4 µM | 64.3 µM | > 100 µM |  |  |  |  |  |  | 
CN(C)C(=S)N=Nc1c(O)[nH]c2ccccc12 |  |  |  | 17.6 µM | 13.3 µM | 11.4 µM | 67.6 µM | 2.15 µM | 20.8 µM | 1.11 µM | 0.552 µM | 0.955 µM | 2.95 µM | 0.334 µM | 0.763 µM | 
